The text below walks through data of US9409884B2 (Rigel Pharmaceuticals, Inc., priority 2012, dated 2016).

SMILES strings stand for the structures.

One experiment concerns the target AMPK. In words: AMPK activation, enzyme-linked immunosorbent assay. It counts as biochemical. The conditions noted are these: Table 8, compounds of Table 1. The essentials: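 AMPK activation by test compounds was measured by enzyme-linked immunosorbent assay.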
For `O=C(c1ccc(F)cc1)N1CCC(NS(=O)(=O)c2ccc(OC3CCN(c4ccc(C(F)(F)F)cc4)CC3)nc2)CC1` [Compound 1-60, N-(1-(4-fluorobenzoyl)piperidin-4-yl)-6-(1-(4-(trifluoromethyl)phenyl)piperidin-4-yloxy)pyridine-3-sulfonamide], the EC50 (usually the concentration at which the effect is half-maximal) is over 10000 nM. The same measure, in the same setting: as for `CC(C)(C)OC(=O)N1CC[C@H](NC(=O)c2cc3cc(OC4CCN(Cc5ccc(Cl)cc5)CC4)ccc3o2)C1` [Compound 1-127, (S)-tert-butyl 3-(5-(1-(4-chlorobenzyl)piperidin-4-yloxy)benzofuran-2-carboxamido) pyrrolidine-1-carboxylate], the figure is 1000 to 5000 nM; as for `N#Cc1ccccc1CN1CCC(NC(=O)c2cc3ccc(OC4CCN(c5ccc(C(F)(F)F)cc5)CC4)cc3o2)CC1` [Compound 1-98, N-(1-(2-cyanobenzyl)piperidin-4-yl)-6-(1-(4-(trifluoromethyl)phenyl)piperidin-4-yloxy)benzofuran-2-carboxamide], under 100 nM; as for `N#Cc1ccc(CN2CCC(NC3CCc4cc(OC5CCN(c6ccc(C(F)(F)F)cc6)CC5)ccc43)CC2)cc1` (stereo not drawn) [Compound 1-160, 4-((4-(5-(1-(4-(trifluoromethyl)phenyl)piperidin-4-yloxy)-2,3-dihydro-1H-inden-1-ylamino)piperidin-1-yl)methyl)benzonitrile], under 100 nM.

For the molecule `O=C(NC1CCN(CCc2ccccc2)CC1)c1ccc(OC2CCN(c3ccc(C(F)(F)F)cc3)CC2)cn1` [Compound 1-36, N-(1-phenethylpiperidin-4-yl)-5-(1-(4-(trifluoromethyl)phenyl)piperidin-4-yloxy) picolinamide], the EC50 lay within 500 to 1000 nM. The molecule `N#Cc1ccc(CN2CC[C@H](NC(=O)c3ccc(OC4CCN(c5ccc(C(F)(F)F)cc5)CC4)cn3)C2)cc1` [Compound 1-31, (S)-N-(1-(4-cyanobenzyl)pyrrolidin-3-yl)-5-(1-(4-(trifluoromethyl)phenyl)piperidin-4-yloxy) picolinamide] gave an EC50 of under 100 nM. Same read-out and setting: to `O=C(NC1CCNCC1)c1cc2ccc(OC3CCN(c4ccc(OC(F)(F)F)cc4)CC3)cc2o1` [Compound 1-83, N-(piperidin-4-yl)-6-(1-(4-(trifluoromethoxy)phenyl)piperidin-4-yloxy)benzofuran-2-carboxamide] belongs 100 to 500 nM; to `CC(C)(C)OC(=O)N1CCC(NC(=O)c2sc3cc(OC4CCN(c5ccc(C(F)(F)F)cc5)CC4)ccc3c2Cl)CC1` [Compound 1-147, tert-butyl 4-(3-chloro-6-(1-(4-(trifluoromethyl)phenyl)piperidin-4-yloxy)benzo [b]thiophene-2-carboxamido) piperidine-1-carboxylate], 1000 to 5000 nM.

The same experiment, now with this note: Table 9, compounds of Table 2.
Regarding `N#Cc1ccc(CN2CCC(NC(=O)c3ccc4[nH]c5c(c4c3)CN(C(=O)OCc3ccccc3)CC5)CC2)cc1` [Compound 2-1, benzyl 8-(1-(4-cyanobenzyl)piperidin-4-ylcarbamoyl)-3,4-dihydro-1H-pyrido[4,3-b]indole-2(5H)-carboxylate], the EC50 lay in the range of 1000 to 5000 nM. Same read-out and setting: as for `O=C(NC1CCN(c2ccc(F)cc2)CC1)c1ccc2[nH]c3c(c2c1)CN(Cc1ccc(C(F)(F)F)cc1)CC3` [Compound 2-15, N-(1-(4-fluorophenyl)piperidin-4-yl)-2-(4-(trifluoromethyl)benzyl)-2,3,4,5-tetrahydro-1H-pyrido[4,3-b]indole-8-carboxamide], the figure is under 500 nM.

Staying with this experiment, now noted: Table 10, compounds of Table 3.
For `CC(C)(C)OC(=O)N1CCC(Oc2ncc(C(=O)NC3CCN(Cc4ccc(C#N)cc4)CC3)s2)CC1` [Compound 3-26, tert-butyl 4-(5-(1-(4-cyanobenzyl)piperidin-4-ylcarbamoyl)thiazol-2-yloxy)piperidine-1-carboxylate], the EC50 was 1000 to 10000 nM.

The same experiment, now with this note: Table 12, compounds of Table 5.
The molecule `N#Cc1ccc(CN2CCC(NC(=O)c3cccc(OC4CCN(Cc5ccc(-n6cccn6)cc5)CC4)c3)CC2)cc1` [Compound 5-119, 3-(l-(4-(lH-pyrazol-1-yl)benzyl)piperidin-4-yloxy)-N-(1-(4-cyanobenzyl)piperidin-4-yl)benzamide] yielded an EC50 of under 1000 nM.

On to `COc1ccc(CN2CCC(Oc3ccc(C(=O)NCCCN4CCOCC4)cc3Cl)CC2)cc1` [Compound 5-101, 3-chloro-4-(1-(4-methoxybenzyl)piperidin-4-yloxy)-N-(3-morpholinopropyl)benzamide], for which the concentration giving a half-maximal response (EC50) lay in the range of 10000 to 20000 nM.

Molecule `N#Cc1ccc(CN2CCC(Oc3ccc(C(=O)NC4CCN(Cc5ccccn5)CC4)cc3)CC2)cc1` [Compound 5-85, 4-(1-(4-cyanobenzyl)piperidin-4-yloxy)-N-(1-(pyridin-2-ylmethyl)piperidin-4-yl)benzamide] displayed an EC50 of under 1000 nM. Still for that read-out and setting: to `N#Cc1cccc(CN2CCC(Oc3cccc(C(=O)NC4CCN(Cc5ccccc5)CC4)c3)CC2)c1` [Compound 5-89, N-(1-benzylpiperidin-4-yl)-3-(1-(3-cyanobenzyl)piperidin-4-yloxy)benzamide] belongs 1000 to 10000 nM; to `COC(=O)c1ccc(CN2CCC(Oc3cccc(C(=O)NC4CCN(Cc5ccc(OC)cc5)CC4)c3)CC2)cc1` [Compound 5-112, methyl 4-((4-(3-(l-(4-methoxybenzyl)piperidin-4-ylcarbamoyl)phenoxy)piperidin-1-yl)methyl)benzoate], 1000 to 10000 nM.

Turning to `O=C(O)c1ccc(CN2CCC(NC(=O)c3ccc(OC4CCN(c5ccc(C(F)(F)F)cc5)CC4)c(F)c3)CC2)cc1` [Compound 5-35, 4-((4-(3-fluoro-4-(1-(4-(trifluoromethyl)phenyl)piperidin-4-yloxy)benzamido)piperidin-1-yl)methyl)benzoic acid], the EC50 lay in the range of 1000 to 10000 nM. Still for that read-out and setting: as for `N#Cc1ccc(N2CCC(Oc3cccc(C(=O)NC4CCN(Cc5ccccc5)CC4)c3)CC2)cc1` [Compound 5-48, N-(1-benzylpiperidin-4-yl)-3-(1-(4-cyanophenyl)piperidin-4-yloxy)benzamide], the figure is under 1000 nM; as for `O=C(NC1CCN(Cc2ccccc2)CC1)c1cc(Cl)c(OC2CCN(Cc3ccc(F)c(F)c3)CC2)c(Cl)c1` [Compound 5-76, N-(1-benzylpiperidin-4-yl)-3,5-dichloro-4-(1-(3,4-difluorobenzyl)piperidin-4-yloxy)benzamide], under 1000 nM.

The same experiment, now with this note: Table 13, compounds of Table 6.
`CS(=O)(=O)c1ccc(N2CCC(C(=O)Nc3ccc4oc(C(=O)NC5CCN(Cc6ccc(C#N)cc6)CC5)cc4c3)CC2)cc1` [Compound 6-84, N-(2-(1-(4-cyanobenzyl)piperidin-4-ylcarbamoyl)benzofuran-5-yl)-1-(4-(methylsulfonyl)phenyl) piperidine-4-carboxamide] showed an EC50 of under 100 nM. In the case of `COc1ccc(CN2CCC(NC(=O)c3cc4cc(C(=O)N5CCN(c6cc(C(F)(F)F)cc(C(F)(F)F)c6)CC5)ccc4o3)CC2)cc1` [Compound 6-120, 5-(4-(3,5-bis(trifluoromethyl)phenyl)piperazine-1-carbonyl)-N-(1-(4-methoxybenzyl)piperidin-4-yl)benzofuran-2-carboxamide], the EC50 was under 100 nM.

As to `N#Cc1ccc(CN2CCC(NC(=O)c3cc4cc(C(=O)NC5CCN(Cc6ccc(OC(F)(F)F)cc6)CC5)ccc4o3)CC2)cc1` [Compound 6-93, N2-(1-(4-cyanobcnzyl)piperidin-4-yl)-N5-(1-(4-(trifluoromethoxy)benzyl)piperidin-4-yl)benzofuran-2,5-dicarboxamide], the EC50 fell in the range of 100 to 1000 nM. With `N#Cc1ccc(CN2CCC(NC(=O)c3cc4cc(C(=O)N5CCN(c6ccc(C(=O)C7CC7)cc6)CC5)ccc4o3)CC2)cc1` [Compound 6-109, N-(1-(4-cyanobenzyl)piperidin-4-yl)-5-(4-(4-(cyclopropanecarbonyl)phenyl)piperazine-1-carbonyl)benzofuran-2-carboxamide], the EC50 is under 100 nM. Still for that read-out and setting: to `N#Cc1ccc(CN2CCC(NC(=O)c3cc4cc(NC(=O)c5ccc(Oc6ccc(F)cc6)nc5)ccc4o3)CC2)cc1` [Compound 6-64, N-(2-(1-(4-cyanobenzyl)piperidin-4-ylcarbamoyl)benzofuran-5-yl)-6-(4-fluorophenoxy)nicotinamide] belongs 100 to 1000 nM; to `COc1ccc(CN2CCC(NC(=O)c3cc4cc(C(=O)N5CCC(Oc6ccc(S(=O)(=O)C(F)(F)F)cc6)CC5)ccc4o3)CC2)cc1F` [Compound 6-137, N-(1-(3-fluoro-4-methoxybenzyl)piperidin-4-yl)-5-(4-(4-(trifluoromethylsulfonyl)phenoxy)piperidine-1-carbonyl)benzofuran-2-carboxamide], under 100 nM.

Staying with this experiment, now noted: Table 14, compounds of Table 7.
With `O=C(NC1CCN(Cc2cccc(OC(F)(F)F)c2)CC1)c1ccc(C(=O)N2CCC(C(=O)c3ccc(N4CCCC4)cc3)CC2)nc1` [Compound 7-111, 6-(4-(4-(pyrrolidin-1-yl)benzoyl)piperidine-1-carbonyl)-N-(1-(3-(trifluoromethoxy)benzyl)piperidin-4-yl)nicotinamide], the EC50 is under 1000 nM. The same measure, in the same setting: as for `CC(=O)c1ccc(Oc2ccc(NC(=O)c3ccc(C(=O)N4CCC(C(=O)c5ccc(OC(F)(F)F)cc5)CC4)nc3)cn2)cc1` [Compound 7-70, N-(6-(4-acetylphenoxy)pyridin-3-yl)-6-(4-(4-(trifluoromethoxy)benzoyl)piperidine-1-carbonyl) nicotinamide], the figure is under 1000 nM; as for `N#Cc1ccc(CN2CCC(NC(=O)c3ccc(C(=O)N4CCC(Oc5ccc(S(=O)(=O)C(F)(F)F)cc5)CC4)nc3)CC2)cc1` [Compound 7-118, N-(1-(4-cyanobenzyl)piperidin-4-yl)-6-(4-(4-(trifluoromethylsulfonyl)phenoxy)piperidine-1-carbonyl)nicotinamide], under 1000 nM.

Consider `CCNS(=O)(=O)c1ccc(CN2CCN(C(=O)c3ccc(C(=O)Nc4ccc(Oc5ccc(C(C)=O)cc5)nc4)cn3)CC2)cc1` [Compound 7-92, N-(6-(4-acetylphenoxy)pyridin-3-yl)-6-(4-(4-(N-ethylsulfamoyl)benzyl)piperazine-1-carbonyl) nicotinamide], for which the EC50 is 1000 to 10000 nM. The same measure, in the same setting: as for `CC(=O)c1ccc(Oc2ccc(NC(=O)c3ccc(C(=O)N4CCN(Cc5ccc(S(C)(=O)=O)cc5)CC4)nc3)cn2)cc1` [Compound 7-76, N-(6-(4-acetylphenoxy)pyridin-3-yl)-6-(4-(4-(methylsulfonyl)benzyl)piperazine-1-carbonyl) nicotinamide], the figure is 1000 to 10000 nM.
